Test results from patent US11219625B2, “Inhibitors of N-linked glycosylation and methods using same” (YALE UNIVERSITY, priority 2015, dated 2022).

Experiments:
Assay type in all cases: cell-based
[1] = tested on: lipid linked oligosaccharides (LLOs); experiment: FACE analysis of lipid linked oligosaccharides; settings: FACE, FIG. 2B
Method: Fluorophore assisted carbohydrate electrophoresis (FACE) was performed as previously described (Gao, et al., Glycobiology 2002, 12, 353-360; Gao, et al., J Biol Chem 2005, 280, 17901-17909). Control (Ac-Gln-Tyr-Thr-CONH2) and acceptor (Ac-Asn-Tyr-Thr-CONH2) peptides were used for permeabilized cell experiments. Metabolic labeling of Hela cells, transfection of prosaposin (pSAP) and steroid hormone binding globulin (SHBG) vectors, and knockdown of SIT3A and STT3B to monitor N-linked glycosylation knockdown were performed as described (Shrimal, et al., J Cell Biol 2013, 201, 81-95). Western blot analysis was performed as previously described (Bennett, et al., Transl Oncol 2013, 6, 382-391). The following primary antibodies were used: rabbit anti-EGFR (sc-03; Santa Cruz Biotechnology; 1:1000), rabbit anti-phospho (Tyr1173) EGF Receptor (Cell Signaling; 1:1000), rabbit anti-p21 Waf1/Cip1 (12D1; Cell Signaling; 1:1000), rabbit anti-Cyclin D1 (Cell Signaling; 1:1000), mouse anti-β-Actin (8H10D10; Cell Signaling; 1:1000). For phospho-protein array analysis, PC9 and A549 cells were cultured in 6-well plates in serum-containing medium and treated with or without 10 μM NGI-1 for 24 hours. […]

A549 cells [2] = experiment: Apoptosis by flow cytometry (Annexin-V, 7-AAD), A549; settings: A549, NGI-1 10 μM for 2 or 5 days, or Tn 1 μM
Method: (§1) Analysis of apoptosis susceptibility in A549 and PC9 NSCLC cell lines followed treatment with NGI-1 10 μM or Tn 1 μM for 2 days was done by flow cytometry after staining the cells with Annexin-V (early apoptosis) and 7-AAD (viability dye). […] FIG. 9C: Western blot of BIP protein for A549 and PC9 cells after treatment with 10 μM NGI-1 for 6, 12 or 24 h. The expression of GAPDH was used as a loading control.

A549 cells [3] = experiment: MTT proliferation assay, A549; settings: A549, 10 μM NGI-1 or 1 μM tunicamycin
Method: (§2) FIGS. 4A-4H illustrate the finding that NGI-1 blocks RTK driven proliferation. FIG. 4A illustrates western blot analysis of EGFR phosphorylation (Y1173) and gel mobility in PC9 (EGFR-mutant) and A549 (k-ras mutant) NSCLC cells after 10 μM NGI-1 treatment for 24 h. […] Actin expression was used as a control for protein loading. FIG. 4B illustrates MTT assays results of PC9 following treatment with 10 μM NGI-1 or 1 μM tunicamycin for a total of 5 d. Relative proliferation id reported in fold increase from day 0. FIG. 4C illustrates MTT assays results of A549 following treatment with 10 μM NGI-1 or 1 μM tunicamycin for a total of 5 d. Relative proliferation id reported in fold increase from day 0. FIG. 4D illustrates protein phosphorylation profiles of PC9 cells analyzed by phospho-protein array to assess the response of PC9 to 10 μM NGI-1 for 24 h. FIG. 4E illustrates protein phosphorylation profiles of A549 cells analyzed by phospho-protein array to assess the response of A549 to 10 μM NGI-1 for 24 h. […]
(§3) Growth rates were determined by CellTiter 96 NonRadioactive Cell Proliferation Assay (Promega; Madison, Wis. USA) according to the manufacturer's directions. […] Cell numbers were estimated after 0, 3, and 5 days by adding MTT [(3-(4,5-Dimethylthiazol-2-yl)-2,5-diphenyltetrazolium bromide] reagent to the wells 4 hours before taking the spectrophotometric reading (absorbance at 570 nm).

PC9 cells [4] = experiment: MTT proliferation assay, PC9; settings: PC9, 1 μM tunicamycin
Method: as §2, §3

PC9 cells [5] = experiment: Apoptosis by flow cytometry (Annexin-V, 7-AAD), PC9; settings: PC9, NGI-1 10 μM for 2 or 5 days, or Tn 1 μM
Method: as §1

## tunicamycin [reference compound]
[1]
  effect on LLO production: blocked all LLO production
A549 cells [2]
  induction of apoptosis: apoptosis was activated
A549 cells [3]
  effect on proliferation, MTT: immediately blocks proliferation in both cell lines
PC9 cells [4]
  effect on proliferation, MTT: immediately blocks proliferation in both cell lines
PC9 cells [5]
  induction of apoptosis: apoptosis was activated
